Source: patent US7728028B2, “Substituted imidazoline compounds” (Gruenenthal GmbH, priority 2005, dated 2010)

Biological target: T1, human μ-opiate receptor (Homo sapiens, UniProt P35372)
T1 construct: purchased PerkinElmer Life Sciences, Zaventem, Belgium RB-HOM; host or cells: CHO-K1 cells (recombinant expression; membrane preparation)
Test: Affinity for the human μ-opiate receptor ([3H]-naloxone displacement, SPA)
Settings: Table 2, Examples 11-161; test substance 1 μmole/l; inhibition of specific [3H]-naloxone binding; CHO-K1 membranes; read-out: μ-Opioid receptor, % inhibition [1 μM]
Method: Investigations on the Efficacy of the Compounds According to the Invention Method for Determining the Affinity for the Human μ-Opiate Receptor
The receptor affinity for the human μ-opiate receptor is determined in a homogeneous batch in microtiter plates. For this purpose dilution series of the substances to be tested are incubated with a receptor membrane preparation (15-40 μg protein/250 μl incubation batch) of CHO-K1 cells, which express the human μ-opiate receptor (RB-HOM receptor membrane preparation from PerkinElmer Life Sciences, Zaventem, Belgium), in the presence of 1 nmole/l of the radioactive ligand [^3H]-naloxone (NET719, PerkinElmer Life Sciences company, Zaventem, Belgium) and 1 mg WGA-SPA beads (wheat germ agglutinin SPA beads from Amersham/Pharmacia, Freiburg, Germany) in a total volume of 250 μl for 90 minutes at room temperature. 50 mmole/l of Tris-HCl supplemented with 0.06% bovine serum albumin is used as incubation buffer. In order to determine the non-specific binding, 100 μmole/l of naloxone is additionally added. After the end of the 90 minutes' incubation time the microtiter plates are centrifuged for 20 minutes at 1000 g and the radioactivity is measured in a beta counter (Microbeta-Trilux, PerkinElmer Wallac, Freiburg, Germany). The percentage displacement of the radioactive ligand from its binding to the human μ-opiate receptor at a concentration of the test substances of 1 μmole/l is determined and is given as percentage inhibition of the specific binding.

T1 sequence (P35372 whole entry): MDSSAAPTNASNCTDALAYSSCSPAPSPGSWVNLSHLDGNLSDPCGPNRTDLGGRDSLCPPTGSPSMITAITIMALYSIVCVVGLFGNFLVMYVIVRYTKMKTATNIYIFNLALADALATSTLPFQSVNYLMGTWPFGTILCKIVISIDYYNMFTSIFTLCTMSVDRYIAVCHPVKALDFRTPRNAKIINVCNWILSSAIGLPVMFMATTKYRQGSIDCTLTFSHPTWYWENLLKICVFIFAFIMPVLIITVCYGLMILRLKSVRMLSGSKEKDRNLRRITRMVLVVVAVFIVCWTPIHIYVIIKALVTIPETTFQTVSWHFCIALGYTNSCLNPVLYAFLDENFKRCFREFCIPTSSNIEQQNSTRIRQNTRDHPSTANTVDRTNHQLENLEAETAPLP

| SMILES | inhibition at 1 µM |
| --- | --- |
| COC(=O)C1(Cc2ccc(Cl)cc2)N=CN(C2CCCCC2)C1CC1CCC(C(c2cccs2)N(C)C)CC1 (stereo not shown) [Example 20, 4-(4-chlorobenzyl)-1-cyclohexyl-5-[4-(dimethylamino-thiophen-2-yl-methyl)-cyclohexylmethyl]-4,5-dihydro-1H-imidazole-4-carboxylic acid methyl ester] | 95% |
| COC(=O)C1(C)N=CN(CCc2ccccc2)C1CC1CCC(C(CCc2ccccc2)N(C)C)CC1 (stereo not shown) [Example 137, 5-[4-(1-dimethylamino-3-phenylpropyl)-cyclohexylmethyl]-4-methyl-1-phenethyl-4,5-dihydro-1H-imidazole-4-carboxylic acid methyl ester] | 61% |
| CCCCN1C=NC(CCSC)(C(=O)OC)C1CC1CCC(C(CCc2ccccc2)N(C)C)CC1 (stereo not shown) [Example 128, 1-butyl-5-[4-(1-dimethylamino-3-phenylpropyl)-cyclohexylmethyl]-4-(2-methylsulfanylethyl)-4,5-dihydro-1H-imidazole-4-carboxylic acid methyl ester] | 83% |
| CCCCC1(C(=O)OC)N=CN(CCC)C1CC1CCC(C(c2ccc(Cl)cc2)N(C)C)CC1 (stereo not shown) [Example 28, 4-butyl-5-{4-[(4-chlorophenyl)-dimethylaminomethyl]-cyclohexylmethyl}-1-propyl-4,5-dihydro-1H-imidazole-4-carboxylic acid methyl ester] | 97% |
| COC(=O)C1(CC(C)C)N=CN(CCc2ccccc2)C1C1CCC(C(c2ccc(Cl)cc2)N(C)C)CC1 (stereo not shown) [Example 40, 5-{4-[(4-chlorophenyl)-dimethylaminomethyl]-cyclohexyl}-4-isobutyl-1-phenethyl-4,5-dihydro-1H-imidazole-4-carboxylic acid methyl ester] | 95% |
| CCCCN1C=NC(CCC(=O)OC)(C(=O)OC)C1CC1CCC(C(c2cccc(F)c2)N(C)C)CC1 (stereo not shown) [Example 72, 1-butyl-5-{4-[dimethylamino-(3-fluorophenyl)-methyl]-cyclohexylmethyl}-4-(2-methoxycarbonylethyl)-4,5-dihydro-1H-imidazole-4-carboxylic acid methyl ester] | 95% |
| CCCN1C=NC(CCSC)(C(=O)OC)C1CC1CCC(C(CCc2ccccc2)N(C)C)CC1 (stereo not shown) [Example 121, 5-[4-(1-dimethylamino-3-phenylpropyl)-cyclohexylmethyl]-4-(2-methylsulfanylethyl)-1-propyl-4,5-dihydro-1H-imidazole-4-carboxylic acid methyl ester] | 77% |
| CCCCC1(C(=O)OC)N=CN(CCc2ccccc2)C1C1CCC(C(c2ccc(Cl)cc2)N(C)C)CC1 (stereo not shown) [Example 42, 4-butyl-5-{4-[(4-chlorophenyl)-dimethylaminomethyl]-cyclohexyl}-1-phenethyl-4,5-dihydro-1H-imidazole-4-carboxylic acid methyl ester] | 94% |
| CCCCN1C=NC(CC(C)C)(C(=O)OC)C1CC1CCC(C(c2ccc(Cl)cc2)N(C)C)CC1 (stereo not shown) [Example 34, 1-butyl-5-{4-[(4-chlorophenyl)-dimethylaminomethyl]-cyclohexylmethyl}-4-isobutyl-4,5-dihydro-1H-imidazole-4-carboxylic acid methyl ester] | 98% |
| CCCCC1(C(=O)OC)N=CN(CCC)C1C1CCC(C(c2cccc(F)c2)N(C)C)CC1 (stereo not shown) [Example 23, 4-butyl-5-{4-[dimethylamino-(3-fluorophenyl)-methyl]-cyclohexyl}-1-propyl-4,5-dihydro-1H-imidazole-4-carboxylic acid methyl ester] | 76% |
| CCCCN1C=NC(Cc2ccc(Cl)cc2)(C(=O)OC)C1CC1CCC(C(c2ccc(Cl)cc2)N(C)C)CC1 (stereo not shown) [Example 35, 1-butyl-4-(4-chlorobenzyl)-5-{4-[(4-chlorophenyl)-dimethylaminomethyl]-cyclohexylmethyl}-4,5-dihydro-1H-imidazole-4-carboxylic acid methyl ester] | 92% |
| CCCC1(C(=O)OC)N=CN(Cc2ccccc2)C1CC1CCC(C(c2cccc(F)c2)N(C)C)CC1 (stereo not shown) [Example 138, 1-benzyl-5-{4-[dimethylamino-(3-fluorophenyl)-methyl]-cyclohexylmethyl}-4-propyl-4,5-dihydro-1H-imidazole-4-carboxylic acid methyl ester] | 101% |
| CCCN1C=NC(CCC)(C(=O)OC)C1CC1CCC(C(CCc2ccccc2)N(C)C)CC1 (stereo not shown) [Example 120, 5-[4-(1-dimethylamino-3-phenylpropyl)-cyclohexylmethyl]-1,4-dipropyl-4,5-dihydro-1H-imidazole-imidazole-4-carboxylic acid methyl ester] | 62% |
| CCCN1C=NC(CSCc2ccccc2)(C(=O)OC)C1CC1CCC(C(c2ccc(F)cc2)N(C)C)CC1 (stereo not shown) [Example 161, 4-benzylsulfanylmethyl-5-{4-[dimethylamino-(4-fluorophenyl)-methyl]-cyclohexylmethyl}-1-propyl-4,5-dihydro-1H-imidazole-4-carboxylic acid methyl ester] | 91% |
| CCCC1(C(=O)OC)N=CN(Cc2ccccc2)C1CC1CCC(C(c2ccc(F)cc2)N(C)C)CC1 (stereo not shown) [Example 141, 1-benzyl-5-{4-[dimethylamino-(4-fluorophenyl)-methyl]-cyclohexylmethyl}-4-propyl-4,5-dihydro-1H-imidazole-4-carboxylic acid methyl ester] | 98% |
| COC(=O)CCC1(C(=O)OC)N=CN(C2CCCCC2)C1CC1CCC(C(c2cccc(F)c2)N(C)C)CC1 (stereo not shown) [Example 147, 1-cyclohexyl-5-{4-[dimethylamino-(3-fluorophenyl)-methyl]-cyclohexylmethyl}-4-(2-methoxycarbonylethyl)-4,5-dihydro-1H-imidazole-4-carboxylic acid methyl ester] | 98% |
| CCCN1C=NC(CCSC)(C(=O)OC)C1CC1CCC(C(c2ccc(F)cc2)N(C)C)CC1 (stereo not shown) [Example 119, 5-{4-[dimethylamino-(4-fluorophenyl)-methyl]-cyclohexylmethyl}-4-(2-methylsulfanylethyl)-1-propyl-4,5-dihydro-1H-imidazole-4-carboxylic acid methyl ester] | 90% |
| COC(=O)C1(CCSC)N=CN(C2CCCCC2)C1CC1CCC(C(c2cccc(F)c2)N(C)C)CC1 (stereo not shown) [Example 103, 1-cyclohexyl-5-{4-[dimethylamino-(3-fluorophenyl)-methyl]-cyclohexylmethyl}-4-(2-methylsulfanyl-ethyl)-4,5-dihydro-1H-imidazole-4-carboxylic acid methyl ester] | 99% |
| CCCN1C=NC(CCC(=O)OC)(C(=O)OC)C1CC1CCC(C(c2ccc(F)cc2)N(C)C)CC1 (stereo not shown) [Example 159, 5-{4-[dimethylamino-(4-fluorophenyl)-methyl]-cyclohexylmethyl}-4-(2-methoxycarbonylethyl)-1-propyl-4,5-dihydro-1H-imidazole-4-carboxylic acid methyl ester] | 79% |
| CCCN1C=NC(C)(C(=O)OC)C1CC1CCC(C(c2cccc(F)c2)N(C)C)CC1 (stereo not shown) [Example 117, 5-{4-[dimethylamino-(3-fluorophenyl)-methyl]-cyclohexylmethyl}-4-methyl-1-propyl-4,5-dihydro-1H-imidazole-4-carboxylic acid methyl ester] | 88% |
| CCCC1(C(=O)OC)N=CN(C2CCCCC2)C1CC1CCC(C(c2ccc(F)cc2)N(C)C)CC1 (stereo not shown) [Example 105, 1-cyclohexyl-5-{4-[dimethylamino-(4-fluorophenyl)-methyl]-cyclohexylmethyl}-4-propyl-4,5-dihydro-1H-imidazole-4-carboxylic acid methyl ester] | 95% |
| COC(=O)C1(CSCc2ccccc2)N=CN(C2CCCCC2)C1C1CCC(C(c2ccc(Cl)cc2)N(C)C)CC1 (stereo not shown) [Example 52, 4-benzylsulfanylmethyl-5-{4-[(4-chlorophenyl)-dimethylaminomethyl]-cyclohexyl}-1-cyclohexyl-4,5-dihydro-1H-imidazole-4-carboxylic acid methyl ester] | 99% |
| COC(=O)CCC1(C(=O)OC)N=CN(C2CCCCC2)C1CC1CCC(C(CCc2ccccc2)N(C)C)CC1 (stereo not shown) [Example 154, 1-cyclohexyl-5-[4-(1-dimethylamino-3-phenylpropyl)-cyclohexylmethyl]-4-(2-methoxycarbonylethyl)-4,5-dihydro-1H-imidazole-4-carboxylic acid methyl ester] | 82% |
| CCCCN1C=NC(CCC(=O)OC)(C(=O)OC)C1CC1CCC(C(c2ccc(Cl)cc2)N(C)C)CC1 (stereo not shown) [Example 70, 1-butyl-5-{4-[(4-chlorophenyl)-dimethylaminomethyl]-cyclohexylmethyl}-4-(2-methoxycarbonylethyl)-4,5-dihydro-1H-imidazole-4-carboxylic acid methyl ester] | 96% |
| CCCCN1C=NC(CSC)(C(=O)OC)C1CC1CCC(C(c2ccc(Cl)cc2)N(C)C)CC1 (stereo not shown) [Example 89, 1-butyl-5-{4-[(4-chlorophenyl)-dimethylaminomethyl]-cyclohexylmethyl}-4-methylsulfanylmethyl-4,5-dihydro-1H-imidazole-4-carboxylic acid methyl ester] | 96% |
